Data taken from patent publication US20190374554A1, “USE OF OXYGENATED CHOLESTEROL SULFATES (OCS) TO TREAT INFLAMMATORY SKIN DISEASE AND SKIN LESIONS” (Virginia Commonwealth University, priority 2016, published 2019).
Where “and” joins values, the source holds several entries; their conditions need not be identical. Equal entries are not always repeated.

What was measured:
[1] = Infusion compatibility: 25HC3S diluted in 5% dextrose infusion bag and eluted through infusion sets (potency, osmolality, pH, appearance); format: physicochemical; conditions: for 24 Hours at 2-8° C. Concentration / 24 Hours at 2-8° C. Osmolality / 24 Hours at 2-8° C. pH / 24 Hours at 25° C. % Remaining Compared to T = 0 / 24 Hours at 25° C. Concentration / 24 Hours at 25° C. Osmolality / 24 Hours at 25° C. pH / T = 0 Conc. / T = 0 Osmolality / T = 0 pH: 5% dextrose bag
Procedure: A physical and chemical compatibility study was conducted at a 30 mg, 48 mg and 300 mg 25HC3S dose in 5% dextrose and 0.9% sodium chloride infusion bags. Descriptions of the two kinds of infusion sets tested with 25HC3S product diluted in 5% dextrose and 0.9% sodium chloride are listed in Table 15. The tubing in catalog number 2H8480 infusion set was composed of polyvinylchloride (PVC), while the tubing in catalog number 2C8858 was polyethylene lined except for a short pump segment (approximately 12 inches) which was composed of PVC.
25HC3S for Injection and Vehicle for 25HC3S for Injection, that had been stored at 2-8° C. for approximately 16 months, were used for the compatibility study. After constitution, 30 mg (1.0 mL of constituted product), 48 mg (1.6 mL of constituted product) or 300 mg (10 mL of constituted product) were added to 100 mL infusion bags of 5% dextrose and 0.9% sodium chloride, mixed thoroughly, and stored for 24 hours at room temperature and at 2-8° C. […] Taking into consideration the overfill per infusion bag and the additional volume introduced by adding the constituted 25HC3S product to each bag, the expected concentrations of 25HC3S were 0.28 mg/mL, 0.44 mg/mL, and 2.56 mg/mL in the infusion bags. Two kinds of infusion sets were then attached to the drug containing infusion bags, and the entire contents were eluted through the infusion sets at approximately 50 mL/hour at room temperature. Samples were collected from the 25HC3S prepared infusion bags at T=0 and at 24 hours, and from the total eluent passed through the infusion sets, and tested for 25HC3S concentration using HPLC. Solution visual appearance, osmolality (using method USP<785>), and pH (using method USP<791>) were also measured on the collected samples.

Beagle dogs = experiment: Two-week SC injection study in dogs; format: in vivo
Procedure: In a separate study, Beagle dogs (n=4/sex/dose group) received daily SC injections for 2 weeks. The solution that was tested included 30 mg/mL of 25HC3 S sodium salt in vehicle (250 mg/mL hydroxypropyl-β-cyclodextrin in 10 mM sodium phosphate buffer). Dose levels of 0 (vehicle), 3, 10 and 30 mg/kg of 25HC3S were administered in dose volumes of 1.0, 0.1, 0.33 and 1.0 mL/kg. Following 14 days of dose administration, all dogs were euthanized and necropsied.

[2] = 5% dextrose, approx. 0.28 mg/mL, bag 24 h at 2-8° C., Baxter 2C8858
[3] = 5% dextrose, approx. 0.28 mg/mL, bag 24 h at 2-8° C., Baxter 2H8480
[4] = 5% dextrose, approx. 0.28 mg/mL, bag 24 h at 25° C., Baxter 2C8858
[5] = 5% dextrose, approx. 0.28 mg/mL, bag 24 h at 25° C., Baxter 2H8480
[6] = 5% dextrose, approx. 0.44 mg/mL, bag 24 h at 2-8° C., Baxter 2C8858
[7] = 5% dextrose, approx. 0.44 mg/mL, bag 24 h at 2-8° C., Baxter 2H8480
[8] = 5% dextrose, approx. 0.44 mg/mL, bag 24 h at 25° C., Baxter 2C8858
[9] = 5% dextrose, approx. 0.44 mg/mL, bag 24 h at 25° C., Baxter 2H8480
[10] = 5% dextrose, approx. 2.56 mg/mL, bag 24 h at 2-8° C., Baxter 2C8858
[11] = 5% dextrose, approx. 2.56 mg/mL, bag 24 h at 2-8° C., Baxter 2H8480
[12] = 5% dextrose, approx. 2.56 mg/mL, bag 24 h at 25° C., Baxter 2C8858
[13] = 5% dextrose, approx. 2.56 mg/mL, bag 24 h at 25° C., Baxter 2H8480
[14] = dextrose drug containing solutions

C[C@H](CCCC(C)(C)O)[C@H]1CC[C@H]2[C@@H]3CC=C4C[C@@H](OS(=O)(=O)[O-])CC[C@]4(C)[C@H]3CC[C@]12C.[Na+] [Formulation 25HC3S, 5-cholesten-3, 25-diol, 3-sulfate]
24 Hours at 2-8° C. Concentration ([1]; approx. 0.28 mg/mL 25HC3S): 0.280 mg/mL | 24 Hours at 2-8° C. Osmolality ([1]; approx. 0.28 mg/mL 25HC3S): 250 mmol/kg and 253 mmol/kg | 24 Hours at 2-8° C. pH ([1]; approx. 0.28 mg/mL 25HC3S): 7.09 and 7.04 | 24 Hours at 25° C. % Remaining Compared to T = 0 ([1]; approx. 0.28 mg/mL 25HC3S): (100.0%) | 24 Hours at 25° C. Concentration ([1]; approx. 0.28 mg/mL 25HC3S): 0.276 mg/mL and 0.277 mg/mL | 24 Hours at 25° C. Osmolality ([1]; approx. 0.28 mg/mL 25HC3S): 252 mmol/kg and 249 mmol/kg | 24 Hours at 25° C. pH ([1]; approx. 0.28 mg/mL 25HC3S): 7.12 and 7.05 | T = 0 Conc. ([1]; approx. 0.28 mg/mL 25HC3S): 0.276 mg/mL and 0.277 mg/mL and 0.280 mg/mL and 0.279 mg/mL | T = 0 Osmolality ([1]; approx. 0.28 mg/mL 25HC3S): 247 mmol/kg and 250 mmol/kg and 251 mmol/kg | T = 0 pH ([1]; approx. 0.28 mg/mL 25HC3S): 7.09 and 7.03 and 7.10 and 7.04 | 24 Hours at 2-8° C. Concentration ([1]; approx. 0.44 mg/mL 25HC3S): 0.438 mg/mL and 0.440 mg/mL | 24 Hours at 2-8° C. Osmolality ([1]; approx. 0.44 mg/mL 25HC3S): 254 mmol/kg and 257 mmol/kg | 24 Hours at 2-8° C. pH ([1]; approx. 0.44 mg/mL 25HC3S): 6.96 and 6.93 | 24 Hours at 25° C. % Remaining Compared to T = 0 ([1]; approx. 0.44 mg/mL 25HC3S): (100.0%) | 24 Hours at 25° C. Concentration ([1]; approx. 0.44 mg/mL 25HC3S): 0.447 mg/mL and 0.442 mg/mL | 24 Hours at 25° C. Osmolality ([1]; approx. 0.44 mg/mL 25HC3S): 256 mmol/kg and 253 mmol/kg | 24 Hours at 25° C. pH ([1]; approx. 0.44 mg/mL 25HC3S): 6.91 and 6.90 | T = 0 Conc. ([1]; approx. 0.44 mg/mL 25HC3S): 0.447 mg/mL and 0.442 mg/mL and 0.439 mg/mL | T = 0 Osmolality ([1]; approx. 0.44 mg/mL 25HC3S): 255 mmol/kg and 254 mmol/kg and 256 mmol/kg | T = 0 pH ([1]; approx. 0.44 mg/mL 25HC3S): 6.83 and 6.81 and 6.82 and 6.88 | 24 Hours at 2-8° C. Concentration ([1]; approx. 2.56 mg/mL 25HC3S): 2.550 mg/mL and 2.530 mg/mL | 24 Hours at 2-8° C. Osmolality ([1]; approx. 2.56 mg/mL 25HC3S): 246 mmol/kg and 251 mmol/kg | 24 Hours at 2-8° C. pH ([1]; approx. 2.56 mg/mL 25HC3S): 6.11 and 6.14 | 24 Hours at 25° C. Concentration ([1]; approx. 2.56 mg/mL 25HC3S): 2.470 mg/mL and 2.520 mg/mL | 24 Hours at 25° C. Osmolality ([1]; approx. 2.56 mg/mL 25HC3S): 257 mmol/kg and 250 mmol/kg | 24 Hours at 25° C. pH ([1]; approx. 2.56 mg/mL 25HC3S): 6.12 and 6.06 | T = 0 Conc. ([1]; approx. 2.56 mg/mL 25HC3S): 2.500 mg/mL and 2.510 mg/mL and 2.530 mg/mL and 2.525 mg/mL | T = 0 Osmolality ([1]; approx. 2.56 mg/mL 25HC3S): 258 mmol/kg and 247 mmol/kg | T = 0 pH ([1]; approx. 2.56 mg/mL 25HC3S): 6.04 and 6.12 and 6.29 and 6.26 | After Storage in Infusion Bag and Collection from Infusion Set % Remaining Compared to T = 0 [1, 2]: (100.4%) | After Storage in Infusion Bag and Collection from Infusion Set Concentration [1, 2]: 0.280 mg/mL | After Storage in Infusion Bag and Collection from Infusion Set Osmolality [1, 2]: 252 mmol/kg | After Storage in Infusion Bag and Collection from Infusion Set pH [1, 2]: 6.99 | After Storage in Infusion Bag and Collection from Infusion Set % Remaining Compared to T = 0 [1, 3]: (100.0%) | After Storage in Infusion Bag and Collection from Infusion Set Concentration [1, 3]: 0.280 mg/mL | After Storage in Infusion Bag and Collection from Infusion Set Osmolality [1, 3]: 251 mmol/kg | After Storage in Infusion Bag and Collection from Infusion Set pH [1, 3]: 6.95 | After Storage in Infusion Bag and Collection from Infusion Set % Remaining Compared to T = 0 [1, 4]: (100.0%) | After Storage in Infusion Bag and Collection from Infusion Set Concentration [1, 4]: 0.277 mg/mL | After Storage in Infusion Bag and Collection from Infusion Set Osmolality [1, 4]: 252 mmol/kg | After Storage in Infusion Bag and Collection from Infusion Set pH [1, 4]: 7.04 | After Storage in Infusion Bag and Collection from Infusion Set % Remaining Compared to T = 0 [1, 5]: (100.0%) | After Storage in Infusion Bag and Collection from Infusion Set Concentration [1, 5]: 0.276 mg/mL | After Storage in Infusion Bag and Collection from Infusion Set Osmolality [1, 5]: 252 mmol/kg | After Storage in Infusion Bag and Collection from Infusion Set pH [1, 5]: 6.99 | After Storage in Infusion Bag and Collection from Infusion Set % Remaining Compared to T = 0 [1, 6]: (100.2%) | After Storage in Infusion Bag and Collection from Infusion Set Concentration [1, 6]: 0.440 mg/mL | After Storage in Infusion Bag and Collection from Infusion Set Osmolality [1, 6]: 255 mmol/kg | After Storage in Infusion Bag and Collection from Infusion Set pH [1, 6]: 6.93 | After Storage in Infusion Bag and Collection from Infusion Set % Remaining Compared to T = 0 [1, 7]: (100.2%) | After Storage in Infusion Bag and Collection from Infusion Set Concentration [1, 7]: 0.440 mg/mL | After Storage in Infusion Bag and Collection from Infusion Set Osmolality [1, 7]: 257 mmol/kg | After Storage in Infusion Bag and Collection from Infusion Set pH [1, 7]: 6.91 | After Storage in Infusion Bag and Collection from Infusion Set % Remaining Compared to T = 0 [1, 8]: (100.0%) | After Storage in Infusion Bag and Collection from Infusion Set Concentration [1, 8]: 0.442 mg/mL | After Storage in Infusion Bag and Collection from Infusion Set Osmolality [1, 8]: 253 mmol/kg | After Storage in Infusion Bag and Collection from Infusion Set pH [1, 8]: 6.90 | After Storage in Infusion Bag and Collection from Infusion Set % Remaining Compared to T = 0 [1, 9]: (100.2%) | After Storage in Infusion Bag and Collection from Infusion Set Concentration [1, 9]: 0.448 mg/mL | After Storage in Infusion Bag and Collection from Infusion Set Osmolality [1, 9]: 253 mmol/kg | After Storage in Infusion Bag and Collection from Infusion Set pH [1, 9]: 6.91 | After Storage in Infusion Bag and Collection from Infusion Set % Remaining Compared to T = 0 [1, 10]: (100.4%) | After Storage in Infusion Bag and Collection from Infusion Set Concentration [1, 10]: 2.535 mg/mL | After Storage in Infusion Bag and Collection from Infusion Set Osmolality [1, 10]: 248 mmol/kg | After Storage in Infusion Bag and Collection from Infusion Set pH [1, 10]: 6.10 | After Storage in Infusion Bag and Collection from Infusion Set % Remaining Compared to T = 0 [1, 11]: (100.4%) | After Storage in Infusion Bag and Collection from Infusion Set Concentration [1, 11]: 2.540 mg/mL | After Storage in Infusion Bag and Collection from Infusion Set Osmolality [1, 11]: 247 mmol/kg | After Storage in Infusion Bag and Collection from Infusion Set pH [1, 11]: 5.99 | After Storage in Infusion Bag and Collection from Infusion Set % Remaining Compared to T = 0 [1, 12]: (101.4%) | After Storage in Infusion Bag and Collection from Infusion Set Concentration [1, 12]: 2.545 mg/mL | After Storage in Infusion Bag and Collection from Infusion Set Osmolality [1, 12]: 251 mmol/kg | After Storage in Infusion Bag and Collection from Infusion Set pH [1, 12]: 6.00 | After Storage in Infusion Bag and Collection from Infusion Set % Remaining Compared to T = 0 [1, 13]: (99.2%) | After Storage in Infusion Bag and Collection from Infusion Set Concentration [1, 13]: 2.480 mg/mL | After Storage in Infusion Bag and Collection from Infusion Set Osmolality [1, 13]: 261 mmol/kg | After Storage in Infusion Bag and Collection from Infusion Set pH [1, 13]: 6.01 | deviation of 25HC3S concentrations from the initial T=0 time point ([1]; 5% dextrose, after 24 hours at room temperature and at 2-8° C., and after elution through infusion sets): ≤ 1.4% | osmolality trend [1, 14]: no consistent trends over time in the infusion bag or after elution through the infusion sets | pH trend [1, 14]: no trends over time or after elution through the infusion sets | solution visual appearance ([1]; dextrose, all three concentrations, after 24 hours in bags and after elution): remained as clear and colorless solutions | swelling at the site of injection (Beagle dogs; daily SC 2 weeks, compared to vehicle only (FIG. 1C)): markedly decreased | fibroplasia, hemorrhage, inflammation and necrosis in injection sites: incidence and severity (Beagle dogs; daily SC 3, 10, 30 mg/kg, 2 weeks (FIG. 1B)): generally higher in vehicle controls compared to drug-treated dogs
